Source: patent US20110244569A1, “METHOD OF INDUCING PROLIFERATION AND/OR DIFFERENTIATION OF NEURAL PRECURSOR CELLS BY INTRODUCING PROLACTIN OR WNT3A TO ACTIVATE LATENT NEURAL PRECURSOR CELLS” (priority 2008, published 2011)
Counter-ions that a name gives are not always drawn.

Experiments:
[1] = tested on: primary hippocampal cells; experiment: Primary neurosphere culture, hippocampus; assay type: cell-based, mouse; settings: for generation of very large neurospheres (>250 μm) passaged long-term / increase in number of hippocampal neurospheres generated / number of hippocampal neurospheres: 1 ng/mL Wnt3a or 2 ng/mL PRL; for number of hippocampal neurospheres: n=3; for neurosphere number, aged hippocampus: aged (18 month old) hippocampus, n=4
Experimental: The tissue was enzymatically digested with 0.1% trypsin-EDTA (Gibco/Invitrogen, Eugene, Oreg.) for 7 minutes at 37° C., followed by a wash with 0.014% w/v trypsin inhibitor (type I-S from soybean; Sigma-Aldrich Australia, Sydney, Australia) dissolved in Hepes-buffered minimum essential medium (HEM), which consisted of minimum essential medium (Gibco/Invitrogen) supplemented with 16 mM HEPES (Sigma-Aldrich Australia) and 100 units/ml penicillin/streptomycin (Gibco/Invitrogene). The tissue was centrifuged at 100 rcf for 7 minutes, following which the pellet was resuspended in 1 ml neurosphere growth medium, mechanically triturated until smooth, then filtered through a 40 μm cell sieve (Falcon/BD Biosciences Australia, North Ryde, Australia). The neurosphere growth medium consisted of mouse NeuroCult™ NSC Basal Medium plus mouse NeuroCult™ NSC Proliferation Supplements (StemCell Technologies, Vancouver, Canada) with 2% bovine serum albumin (Roche, Basel, Switzerland) and 2 μg/ml heparin (Sigma-Aldrich Australia). The following growth factors were also included: 20 ng/ml purified mouse receptor-grade EGF (BD Biosciences Australia) and 10 ng/ml recombinant bovine FGF-2 (Roche). After centrifugation at 100 rcf for 7 minutes, the cells were plated at a density of approximately one hippocampus, SVZ or cortex or four olfactory bulbs per 96-well plate (Falcon/BD Biosciences Australia) with 200 μl neurosphere medium per well.
The neurosphere growth medium already contained 4.18 mM KCl. […] This level of potassium is around five times that of the normal physiological concentration of potassium, ˜4 mM. Nicardipine (Sigma-Aldrich), when used, was added to a final concentration of 10 μM. BaCl was used as an alternative to KCl in some experiments at a concentration of 1 mM and GABA at 100 μM. Recombinant mouse Wnt3a (R&D Systems) and recombinant mouse prolactin (PRL; R&D Systems) were added instead of KCl in some experiments at concentrations of 1 ng/mL and 2 ng/mL respectively.
(§1) Primary hippocampal cells were incubated for 10 days, and SVZ, olfactory bulb or cortical cells for 7 days, in humidified 5% CO2 to permit neurosphere formation. The primary neurospheres were then counted and collected for passaging or differentiation. Results of the neurosphere counts were expressed as mean±standard error and statistical analysis was performed using a standard t-Test (two sample assuming equal variance).

[2] = tested on: primary hippocampal cells; experiment: Microarray analysis after KCl depolarization; assay type: cell-based, mouse; settings: following depolarization, P<0.001
Experimental: Hippocampal tissue was dissected and dissociated as described above and incubated either in the presence or absence of 15 mM KCl for 24 hours. Cells were pelleted and total RNA was isolated using the RNeasy mini kit (Qiagen) and quantitated using the Bioanalyzer 2100 (Agilent). aRNA was prepared from 500 ng of RNA using the Message-Amp™-II Biotin Enhanced Kit (Ambion). A total of 15 μg biotinylated aRNA was fragmented and run on a GeneChip mouse Genome 430A 2.0 Array (Affymetrix) in accordance with the manufacturer's instructions.

olfactory bulb cells = experiment: Primary neurosphere culture, olfactory bulb; assay type: cell-based, mouse; settings: potassium-activated vs control
Experimental: (§2) Adult (6-8 week old) male C57/B16 mice were killed by cervical dislocation, their brains immediately removed and the hippocampus, SVZ, olfactory bulb or cortex dissected. The tissue was enzymatically digested with 0.1% trypsin-EDTA (Gibco/Invitrogen, Eugene, Oreg.) for 7 minutes at 37° C., followed by a wash with 0.014% w/v trypsin inhibitor (type I-S from soybean; Sigma-Aldrich Australia, Sydney, Australia) dissolved in Hepes-buffered minimum essential medium (HEM), which consisted of minimum essential medium (Gibco/Invitrogen) supplemented with 16 mM HEPES (Sigma-Aldrich Australia) and 100 units/ml penicillin/streptomycin (Gibco/Invitrogene). The tissue was centrifuged at 100 rcf for 7 minutes, following which the pellet was resuspended in 1 ml neurosphere growth medium, mechanically triturated until smooth, then filtered through a 40 μm cell sieve (Falcon/BD Biosciences Australia, North Ryde, Australia). […]
as §1

cortical cells = experiment: Primary neurosphere culture, cortex; assay type: cell-based, mouse; settings: depolarization vs control
Experimental: as §2, §1

[3] = tested on: latent precursor cell population; experiment: Neurosphere culture of FACS-sorted Emx1-GFP / GFAP-GFP cells; assay type: cell-based, mouse
Experimental: DCX-GFP, Emx1-GFP and GFAP-GFP mice are from the Mutant Mouse Regional Resource Center, The Gene Expression Nervous System Atlas BAC transgenic project (Gong et al., 2002).
Brains were collected and processed. GFP^+ve cells were separated by fluorescence-activated cell sorting (FACS) using a FACS Vantage cell sorter (BD Biosciences). A wild-type littermate control was used to determine background fluorescence levels. For primary neurosphere cultures the cells were plated at a density of 500 cells/well in 96-well plates (Falcon/BD Biosciences, San Jose, Calif.) with 0.2 ml complete medium per well. Complete medium consisted of mouse NeuroCult™ NSC Basal Medium plus mouse NeuroCult™ NSC Proliferation Supplements (StemCell Technologies,
Vancouver, Canada) with 2% bovine serum albumin (Roche, Basel, Switzerland) and 2 μg/ml heparin (Sigma-Aldrich). The following growth factors were also included: 20 ng/ml purified mouse receptor-grade epidermal growth factor (EGF; BD Biosciences Australia) and 10 ng/ml recombinant bovine basic fibroblast growth factor (FGF-2; Roche). Primary cells were incubated for 7 days in humidified 5% CO2 to permit neurosphere formation. The primary neurospheres were then counted and collected for passaging or differentiation. Results of the neurosphere counts were expressed as mean+ or −standard error and statistical analysis was performed using a standard t-Test (two sample assuming equal variance).

hippocampal neurospheres = experiment: Hippocampal neurosphere passaging; assay type: cell-based, mouse
Experimental: Primary neurospheres from the unstimulated hippocampus were also passaged as single spheres.
Hippocampal neurosphere cultures were initiated by removing 150 μl of the medium from wells containing single neurospheres, treating with 100 μl 0.1% trypsin-EDTA for 2 minutes at room temperature, followed by washing with 100 μl trypsin inhibitor in HEM. The neurospheres were mechanically triturated until dissociated and replated in well plates in 2 ml of complete medium. Neurospheres were passaged every 10 days by centrifuging the neurospheres, removing the medium and incubating in 1 ml of 0.1% trypsin-EDTA for 2 minutes at room temperature. After the addition of an equal volume of trypsin inhibitor, the neurospheres were centrifuged at 100 rcf for 5 minutes and the supernatant removed. Cells were mechanically triturated in 500 μl of complete medium and trypan blue staining was used to evaluate the number of cells, both viable and total number, on a hemocytometer. The passaged cells were then re-plated with complete medium at a density of 1×10^4 cells/cm^2 in tissue culture flasks (Nunc, Rochester, N.Y.) or tissue culture plates (Falcon/BD Biosciences) as appropriate.

SVZ cells = experiment: Primary neurosphere culture, SVZ; assay type: cell-based, mouse; settings: for number of SVZ-derived neurospheres: 1 ng/mL Wnt3a or 2 ng/mL PRL, n=2
Experimental: Adult (6-8 week old) male C57/B16 mice were killed by cervical dislocation, their brains immediately removed and the hippocampus, SVZ, olfactory bulb or cortex dissected. The tissue was enzymatically digested with 0.1% trypsin-EDTA (Gibco/Invitrogen, Eugene, Oreg.) for 7 minutes at 37° C., followed by a wash with 0.014% w/v trypsin inhibitor (type I-S from soybean; Sigma-Aldrich Australia, Sydney, Australia) dissolved in Hepes-buffered minimum essential medium (HEM), which consisted of minimum essential medium (Gibco/Invitrogen) supplemented with 16 mM HEPES (Sigma-Aldrich Australia) and 100 units/ml penicillin/streptomycin (Gibco/Invitrogene). The tissue was centrifuged at 100 rcf for 7 minutes, following which the pellet was resuspended in 1 ml neurosphere growth medium, mechanically triturated until smooth, then filtered through a 40 μm cell sieve (Falcon/BD Biosciences Australia, North Ryde, Australia). The neurosphere growth medium consisted of mouse NeuroCult™ NSC Basal Medium plus mouse NeuroCult™ NSC Proliferation Supplements (StemCell Technologies, Vancouver, Canada) with 2% bovine serum albumin (Roche, Basel, Switzerland) and 2 μg/ml heparin (Sigma-Aldrich Australia). The following growth factors were also included: 20 ng/ml purified mouse receptor-grade EGF (BD Biosciences Australia) and 10 ng/ml recombinant bovine FGF-2 (Roche). After centrifugation at 100 rcf for 7 minutes, the cells were plated at a density of approximately one hippocampus, SVZ or cortex or four olfactory bulbs per 96-well plate (Falcon/BD Biosciences Australia) with 200 μl neurosphere medium per well.
The neurosphere growth medium already contained 4.18 mM KCl. […]
as §1

C57BL/6 male mice = experiment: Pilocarpine-induced seizures; assay type: in vivo, mouse; settings: 350 mg/kg intraperitoneal
Experimental: Seizures were induced in 6-8 week old C57BL/6 male mice by the administration of pilocarpine, a muscarinic cholinergic agonist. Thirty minutes prior to pilocarpine administration, the mice were injected with 2.5 mg/kg of the cholinergic antagonist scopolamine methyl nitrate (Sigma-Aldrich) to reduce peripheral cholinergic effects. They then received intraperitoneal injections of 350 mg/kg pilocarpine hydrochloride (Sigma-Aldrich). […] Seizures were stopped 2 hours after status epilepticus onset, with an intraperitoneal injection of 5 mg/kg diazepam ([…], Parnell Laboratories Sydney, Australia).

adult female mice = settings: infusion, cited from earlier work
SVZ-derived neurospheres = settings: cited from earlier work
[4] = 10 nM and 30 nM PRL in presence of EGF

Molecule: [Ba+2].[Cl-].[Cl-] [BaCl2, barium chloride]
- increase in numbers of neurospheres ([1]; 1 mM BaCl2): over 2 fold

Molecule: [Cl-].[K+] [KCl, potassium chloride]
- up-regulation of PRL [2]: 6.4 fold
- up-regulation of Wnt3a [2]: 14.4 fold
- increase in number of olfactory bulb neurospheres (olfactory bulb cells): over 3 fold
- size of activated olfactory-bulb neurospheres (olfactory bulb cells): significant increase in the size
- increase in cortex neurosphere number (cortical cells): over 3 fold
- SFU ([3]; Emx1+ve cells + KCL): 1/37
- SFU ([3]; Emx1-ve cells + KCL): 1/10896
- SFU ([3]; GFAP+ve cells + KCL): 1/127
- SFU ([3]; GFAP-ve cells + KCL): 1/2220
- increase in number of neurospheres generated ([1]; 20 mM KCl vs control (4 mM) potassium or sodium osmotic control, adult mouse): over 3 fold
- increase in number of neurospheres, stimulated vs control ([1]; 18 month old hippocampus, depolarizing conditions): over 12 fold
- effect on number of neurospheres generated ([1]; KCl as low as 10 mM and as high as 30 mM): significantly increase the number of neurospheres generated
- optimal depolarizing level ([1]; KCl dose response assay): 15 mM
- further increase of 33 week HD hippocampal precursors ([1]; R6/1 Huntington's disease mice, 33 weeks, potassium depolarization in vitro): could not be further increased
- further stimulation of precursors from mice that underwent SE ([1]; depolarizing levels of potassium added in vitro after status epilepticus): no further stimulatory effect
- diameter of stimulated neurospheres capable of long term passage (hippocampal neurospheres; all twenty three): > 110 μm
- large primary spheres that could be expanded in culture for up to 10 passages (hippocampal neurospheres; potassium stimulated, standard conditions 0/113): 23 out of 64
- decrease in neurosphere number (SVZ cells; potassium-induced depolarization, adult SVZ): approx 40%

Molecule: CC[C@@H]1C(=O)OC[C@@H]1Cc1cncn1C [pilocarpine, pilocarpine hydrochloride]
- mice in which seizures were observed (C57BL/6 male mice): 70%
- seizing mice that entered status epilepticus (C57BL/6 male mice): 35%
- time to status epilepticus after injection (C57BL/6 male mice): 78 ± 43 min

Molecule: Wnt3a
- generation of very large neurospheres (>250 μm) passaged long-term [1]: generation of a number of the very large neurospheres
- increase in number of hippocampal neurospheres generated [1]: 2 fold
- number of hippocampal neurospheres [1]: 204±66.1 % of control
- neurosphere number, aged hippocampus [1]: 580±230 % of control
- number of SVZ-derived neurospheres (SVZ cells): 98.5±4.5 % of control

B1: PRL: recombinant mouse prolactin (PRL; R&D Systems) (protein, UniProt P06879 30-226, looked up)
Prolactin: LPICSAGDCQTSLRELFDRVVILSHYIHTLYTDMFIEFDKQYVQDREFMVKVINDCPTSSLATPEDKEQALKVPPEVLLNLILSLVQSSSDPLFQLITGVGGIQEAPEYILSRAKEIEEQNKQLLEGVEKIISQAYPEAKGNGIYFVWSQLPSLQGVDEESKILSLRNTIRCLRRDSHKVDNFLKVLRCQIAHQNNC
- number of new olfactory interneurons (adult female mice; after 4 weeks): doubled
- BrdU-labeled cells in the forebrain SVZ (adult female mice; US 2003/0054998): increased
- number of proliferating cells in hippocampal dentate gyrus (adult female mice): no effect
- generation of very large neurospheres (>250 μm) passaged long-term [1]: generation of a number of the very large neurospheres
- increase in number of hippocampal neurospheres generated [1]: 2 fold
- number of hippocampal neurospheres [1]: 217±13 % of control
- neurosphere number, aged hippocampus [1]: 254±23 % of control
- effect on number of SVZ-derived neurospheres (SVZ-derived neurospheres; 1 nM PRL): no effect
- increase in number of neurons per neurosphere (SVZ-derived neurospheres; [4]): two-fold
- increase in numbers of SVZ-derived neurospheres (SVZ-derived neurospheres; [4]): up to 35%
- number of neurospheres in vitro, prolactin alone (SVZ-derived neurospheres; without EGF, US 2003/0054998): did not significantly increase
- number of SVZ-derived neurospheres (SVZ cells): 100±9 % of control
